Data published in patent US20240382537A1, “Genetically Modified Mycoplasma Bacteria Active Against Heterogenous Bacterial Biofilms” (priority 2021, published 2024).

Experiments:
[1] = test system: P. aeruginosa biofilm; assay: In vitro P. aeruginosa biofilm degradation assay (crystal violet); assay type: cell-based, Pseudomonas aeruginosa; conditions: for effect of the minimal killing concentration when cells are organized in a biofilm: antibiotic alone, P. aeruginosa clinical isolates
Procedure: In Vitro P. aeruginosa Biofilm Degradation Assay
M. pneumoniae spp. was grown in a T25 flask for three days with 5 ml of Hayflick media without antibiotics, and then the conditioned supernatant was filtered with 0.33 μm sterile syringe filters. P. aeruginosa strains were grown overnight in Erlenmeyer flasks (20 μl stock in 20 ml TSB) at 37° C. on shaking 600 rpm, and then diluted to an OD600 of 0.15 in TSB. Diluted Pseudomonas culture (100 μl) was then added in triplicates to sterile 96-well polystyrene microtiter plates. Cells were incubated statically overnight at 25°° C. to allow for biofilm formation. Biofilms were washed with PBS the following day to remove non-adherent cells and TSB media. Treatment of 50-100 µl of M. pneumoniae-conditioned filtered medium were added to the wells (using at least triplicates), and plates were incubated at 37° C. for 4 h. After incubation, wells were washed with PBS, stained with 150 μl of 0.1% (w/v) crystal violet for 10 min and washed three times with PBS. The dye was solubilized by addition of 100 μl of 95% (v/v) ethanol and incubated for 10 min. Absorbance was measured at 595 nm using a TECAN plate reader.

[2] = test system: M. pneumoniae; assay: Effect of antibiotics on growth of M. pneumoniae; assay type: cell-based, Mycoplasma pneumoniae
Source text: (§1) We studied a possible increase of the biofilm dispersal activity of CV8_HA strain, that expresses dispersal agents against P. aeruginosa, when combined with antibiotics. We used two different clinical isolates of P. aeruginosa (SAT290 and C117) and two different standard of care antibiotics (Ceftazidime-Avibactam and Piperacillin-Tazobactam). First, we studied the effect of different concentrations of these antibiotics on the growth of P. aeruginosa isolates and M. pneumoniae. […] Therefore, we studied the degradation of the biofilm of the P. aeruginosa clinical isolates when exposed to the supernatant of CV8_HA strains with or without these antibiotics (FIG. 8).

[3] = test system: P. aeruginosa cells; assay: Effect of antibiotic concentrations on growth of P. aeruginosa isolates in suspension; assay type: cell-based, Pseudomonas aeruginosa; conditions: clinical isolates SAT290 and C117, suspension
Source text: as §1

## Piperacillin-Tazobactam
[1]
  effect of the minimal killing concentration when cells are organized in a biofilm: has no effect
[2]
  susceptibility of M. pneumoniae to the antibiotic: naturally resistant
[3]
  minimal concentration that kills P. aeruginosa cells when grown in suspension: > 5 µg/mL

## Ceftazidime-Avibactam
[1]
  effect of the minimal killing concentration when cells are organized in a biofilm: has no effect
[1]; clinical isolate SAT290 (FIG. 8A)
  antibiotic activity on biofilm when combined with CV8_HA supernatant: becomes active on the biofilm
[2]
  susceptibility of M. pneumoniae to the antibiotic: naturally resistant
[3]
  minimal concentration that kills P. aeruginosa cells when grown in suspension: > 15 µg/mL
